Experimental data published in patent publication US20070012632A1, “Synergistic composition and method for inhibiting growth of microorganisms” (priority 2005, published 2007).

Assays:
Assay type in all cases: cell-based
[1] = system: total bacteria in paper mill white water; assay: Total bacterial counts in white water, mill using chemical pulp (Example 2); details: 30 minutes contact time; for Total bacterial counts: white water
Method: The furnish used on this paper machine is composed of about 60% bleached Kraft pulp, and 40% broke. White water was collected and total bacterial counts were determined in samples with and without the addition of DMH stabilized chlorine (1:1 molar ratio of DMH to “Cl2”), and/or PAA, after 30 minutes of contact time.

[2] = system: total bacteria in paper mill white water; assay: Total bacterial counts in white water, very closed mill using chemical pulp (Example 3); set-up: Total bacterial counts: unit not given here; details: 30 minutes contact time; for Total bacterial counts: white water
Method: The furnish used in this mill is composed of about 75% bleached Kraft pulp, and 25% broke. White water was collected and total bacterial counts were determined in samples with and without the addition of DMH stabilized chlorine (1:1 molar ratio of DMH to “Cl2”), and/or PAA, after 30 minutes of contact time.

[3] = system: total bacteria in paper mill white water; assay: Total bacterial counts in white water, mill using mechanical pulp (Example 1); details: 50 minutes contact time; for Total bacterial counts: white water
Method: The furnish used in this mill is composed of about 50% TMP, 25% bleached Kraft pulp, and 25% broke. White water was collected and total bacterial counts were determined in samples with and without the addition of DMH stabilized chlorine (1:1 molar ratio of DMH to “Cl2) and/or PAA, after 50 minutes of contact time.

SMILES: CC(=O)OO [PAA, peracetic acid]
- Total bacterial counts ([1]; PAA 2.5 ppm product): 5.8 × 10^6
- Total bacterial counts ([1]; PAA 5 ppm product): 1.1 × 10^6
- Total bacterial counts ([1]; PAA 10 ppm product): 5 × 10^4
- Concentration alone achieving >3-log reduction in bacterial counts ([1]; biocide alone): > 10 ppm
- Total bacterial counts ([2]; PAA 50 ppm product): 4.5 × 10^6
- Total bacterial counts ([2]; PAA 75 ppm product): 1.6 × 10^6
- Total bacterial counts ([2]; PAA 100 ppm product): 3 × 10^5
- Total bacterial counts ([2]; PAA 150 ppm product): 10^3
- Total bacterial counts ([2]; PAA 200 ppm product): <10^2
- Concentration alone achieving 2-log reduction in bacterial counts ([2]; biocide alone): 150 ppm
- Total bacterial counts ([3]; PAA 25 ppm product): 4 × 10^6
- Total bacterial counts ([3]; PAA 50 ppm product): 3 × 10^5
- Total bacterial counts ([3]; PAA 100 ppm product): 3 × 10^3
- Concentration alone achieving >3-log reduction in bacterial counts ([3]; biocide alone): 100 ppm
